Source: PubChem BioAssay (NCI)
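At the GI50, growth is halved. At the TGI there is no net growth.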

Columns and labels:
Test in all cases: DTP human tumour cell line panel, 384-well format; in the data active = GI50 below about 0.43 µM; inactive = the rest
786-0 renal = tested on: 786-0 renal
A498 renal = tested on: A498 renal
A549 NSCLC = tested on: A549 NSCLC
ACHN renal = tested on: ACHN renal
BT-549 breast = tested on: BT-549 breast
CAKI-1 renal = tested on: CAKI-1 renal
CCRF-CEM leukemia = tested on: CCRF-CEM leukemia
COLO 205 colon = tested on: COLO 205 colon
DU-145 prostate = tested on: DU-145 prostate
EKVX NSCLC = tested on: EKVX NSCLC
HCC-2998 colon = tested on: HCC-2998 colon
HCT-116 colon = tested on: HCT-116 colon
HCT-15 colon = tested on: HCT-15 colon
HL-60(TB) leukemia = tested on: HL-60(TB) leukemia
HOP-62 NSCLC = tested on: HOP-62 NSCLC
HOP-92 NSCLC = tested on: HOP-92 NSCLC
HS 578T breast = tested on: HS 578T breast
HT29 colon = tested on: HT29 colon
IGROV1 ovarian = tested on: IGROV1 ovarian
K-562 leukemia = tested on: K-562 leukemia
KM12 colon = tested on: KM12 colon
LOX IMVI melanoma = tested on: LOX IMVI melanoma
M14 melanoma = tested on: M14 melanoma
MALME-3M melanoma = tested on: MALME-3M melanoma
MCF7 breast = tested on: MCF7 breast
MDA-MB-231 breast = tested on: MDA-MB-231 breast
MDA-MB-468 breast = tested on: MDA-MB-468 breast
MOLT-4 leukemia = tested on: MOLT-4 leukemia
NCI-H226 lung = tested on: NCI-H226 lung
NCI-H23 lung = tested on: NCI-H23 lung
NCI-H322M lung = tested on: NCI-H322M lung
NCI-H460 NSCLC = tested on: NCI-H460 NSCLC
NCI-H522 lung = tested on: NCI-H522 lung
NCI/ADR-RES ovarian = tested on: NCI/ADR-RES ovarian
OVCAR-3 ovarian = tested on: OVCAR-3 ovarian
OVCAR-4 ovarian = tested on: OVCAR-4 ovarian
OVCAR-5 ovarian = tested on: OVCAR-5 ovarian
OVCAR-8 ovarian = tested on: OVCAR-8 ovarian
PC-3 prostate = tested on: PC-3 prostate
RPMI-8226 leukemia = tested on: RPMI-8226 leukemia
RXF 393 renal = tested on: RXF 393 renal
SF-268 CNS = tested on: SF-268 CNS
SF-295 CNS = tested on: SF-295 CNS
SF-539 CNS = tested on: SF-539 CNS
SK-MEL-28 melanoma = tested on: SK-MEL-28 melanoma
SK-MEL-5 melanoma = tested on: SK-MEL-5 melanoma
SK-OV-3 ovarian = tested on: SK-OV-3 ovarian
SN12C renal = tested on: SN12C renal
SNB-19 CNS = tested on: SNB-19 CNS
SNB-75 CNS = tested on: SNB-75 CNS
SR leukemia = tested on: SR leukemia
SW-620 colon = tested on: SW-620 colon
T-47D breast = tested on: T-47D breast
TK-10 renal = tested on: TK-10 renal
U251 glioblastoma = tested on: U251 glioblastoma
UACC-257 melanoma = tested on: UACC-257 melanoma
UO-31 renal = tested on: UO-31 renal

Cc1ccccc1CN1CC2=C(CCN(Cc3ccccc3)C2=O)N2CCN=C12
10.5 µM: TGI (MALME-3M melanoma)
2.9 µM: TGI (SK-MEL-5 melanoma)
0.547 µM: TGI (HL-60(TB) leukemia)
14.1 µM: TGI (COLO 205 colon)
9.29 µM: TGI (NCI-H460 NSCLC)
7.97 µM: TGI (NCI-H23 lung)
63.1 µM: TGI (NCI-H226 lung)
inactive: GI50 ([…]-0 renal) 4.14 µM | GI50 (A498 renal) 4.56 µM | GI50 (A549 NSCLC) 4.2 µM | GI50 (ACHN renal) 6.02 µM | GI50 (BT-549 breast) 4.06 µM | GI50 (CAKI-1 renal) 3.97 µM | GI50 (CCRF-CEM leukemia) 1.04 µM | GI50 (COLO 205 colon) 2.88 µM | GI50 (DU-145 prostate) 3.11 µM | GI50 (EKVX NSCLC) 3.3 µM | GI50 (HCC-2998 colon) 2.66 µM | GI50 (HCT-116 colon) 1.9 µM | GI50 (HCT-15 colon) 1.78 µM | GI50 (HOP-62 NSCLC) 1.36 µM | GI50 (HOP-92 NSCLC) 4.3 µM | GI50 (HS 578T breast) 2.23 µM | GI50 (HT29 colon) 12 µM | GI50 (IGROV1 ovarian) 53.8 µM | GI50 (K-562 leukemia) 0.631 µM | GI50 (KM12 colon) 6.87 µM | GI50 (LOX IMVI melanoma) 2.09 µM | GI50 (M14 melanoma) 3.28 µM | GI50 (MALME-3M melanoma) 3.69 µM | GI50 (MCF7 breast) 3.12 µM | GI50 (MDA-MB-231 breast) 2.83 µM | GI50 (MOLT-4 leukemia) 1.7 µM | GI50 (NCI-H226 lung) 3.42 µM | GI50 (NCI-H23 lung) 2.14 µM | GI50 (NCI-H322M lung) 3.34 µM | GI50 (NCI-H460 NSCLC) 2.61 µM | GI50 (NCI-H522 lung) 2.38 µM | GI50 (NCI/ADR-RES ovarian) 1.39 µM | GI50 (OVCAR-3 ovarian) 2.06 µM | GI50 (OVCAR-4 ovarian) 1.08 µM | GI50 (OVCAR-5 ovarian) 3.5 µM | GI50 (OVCAR-8 ovarian) 0.796 µM | GI50 (PC-3 prostate) 2.81 µM | GI50 (RXF 393 renal) 4.17 µM | GI50 (SF-268 CNS) 3.99 µM | GI50 (SF-295 CNS) 0.7 µM | GI50 (SF-539 CNS) 3.54 µM | GI50 (SK-MEL-28 melanoma) 4.55 µM | GI50 (SK-MEL-5 melanoma) 1.19 µM | GI50 (SK-OV-3 ovarian) 3.44 µM | GI50 (SN12C renal) 3.45 µM | GI50 (SNB-19 CNS) 2.98 µM | GI50 (SNB-75 CNS) 2.9 µM | GI50 (SR leukemia) 1 µM | GI50 (SW-620 colon) 5.69 µM | GI50 (T-47D breast) 2 µM | GI50 (TK-10 renal) 6.47 µM | GI50 (U251 glioblastoma) 1.8 µM | GI50 (UACC-257 melanoma) 1.13 µM | GI50 (UO-31 renal) 5.97 µM
6.21 µM: TGI (U251 glioblastoma)
2.45 µM: TGI (SR leukemia)
36.9 µM: TGI (SK-OV-3 ovarian)
0.382 µM: TGI (RPMI-8226 leukemia)
28 µM: TGI (RXF 393 renal)
23.3 µM: TGI (SF-539 CNS)
66.4 µM: TGI (BT-549 breast)
active: GI50 (HL-60(TB) leukemia) 0.186 µM | GI50 (MDA-MB-468 breast) 0.363 µM | GI50 (RPMI-8226 leukemia) 0.203 µM
3.17 µM: TGI (SF-295 CNS)
> 100 µM: TGI (786-0 renal) | TGI (A498 renal) | TGI (A549 NSCLC) | TGI (ACHN renal) | TGI (CAKI-1 renal) | TGI (CCRF-CEM leukemia) | TGI (DU-145 prostate) | TGI (EKVX NSCLC) | TGI (HCT-116 colon) | TGI (HCT-15 colon) | TGI (HOP-92 NSCLC) | TGI (HT29 colon) | TGI (IGROV1 ovarian) | TGI (K-562 leukemia) | TGI (KM12 colon) | TGI (M14 melanoma) | TGI (MCF7 breast) | TGI (NCI-H322M lung) | TGI (OVCAR-5 ovarian) | TGI (OVCAR-8 ovarian) | TGI (PC-3 prostate) | TGI (SF-268 CNS) | TGI (SK-MEL-28 melanoma) | TGI (SN12C renal) | TGI (SNB-19 CNS) | TGI (SW-620 colon) | TGI (TK-10 renal) | TGI (UO-31 renal)
3.11 µM: TGI (UACC-257 melanoma)
9.62 µM: TGI (MDA-MB-231 breast)
9.66 µM: TGI (T-47D breast)
24.9 µM: TGI (SNB-75 CNS)
4.99 µM: TGI (OVCAR-4 ovarian)
70.9 µM: TGI (NCI-H522 lung)
20.2 µM: TGI (HS 578T breast)
3.39 µM: TGI (MOLT-4 leukemia)
5.71 µM: TGI (OVCAR-3 ovarian)
1.32 µM: TGI (MDA-MB-468 breast)
88.4 µM: TGI (LOX IMVI melanoma)
7.9 µM: TGI (HOP-62 NSCLC)
7.8 µM: TGI (NCI/ADR-RES ovarian)
22.8 µM: TGI (HCC-2998 colon)
